Test results taken from patent US20240050409A1, “Methods and Compositions for Treating Psychotic Disorders” (SOUND PHARMACEUTICALS INCORPORATED, priority 2014, published 2024).
“Also recorded” adds a separate entry of the source.

Experiments:
[1] = system: PV immunoreactive interneurons (PVI) in the PFC of NVHL rats; assay: PV interneuron counts (stereology) in PFC of NVHL rats; type: in vivo, Sprague-Dawley rats; settings: adult (P61) NVHL rats; drinking water 900 mg/l, P5 to P50
Procedure: This example describes reversal of prepulse inhibition through treatment of ebselen. One of the most replicated findings in schizophrenia research is a reduction of markers associated with cortical inhibitory interneurons (Lewis et al., 2012). […] Whether parvalbumin (PV) positive interneurons in the PFC, including the dorsal prelimbic and anterior cingulate cortex (ACC), are altered in NVHL rats using unbiased stereological counting techniques was assessed. Between postnatal day (P) 21 and P61, the number of PV immunoreactive interneurons (PVI) increased in sham-operated rats, but not in NVHL rats as illustrated in FIGS. 7A and 1B.
Animals: Timed-pregnant Sprague-Dawley rats were obtained at gestational days 13-15 from Charles River (Wilmington, MA) and were individually housed with free access to food and water in a temperature- and humidity-controlled environment with a 12:12h light/dark cycle (lights on at 7:00 AM). When pups reached P5, half of the dams received NAC in their drinking water. Pups were left undisturbed until P7-9 when healthy offspring were randomly separated and received either NVHL or sham surgery. At P21, male and female pups were either transcardially perfused with 4% paraformaldehyde for immunocytochemistry or weaned and housed in groups of two to three, counterbalanced across lesion status. NAC treatment lasted throughout adolescence until P50. […]

[2] = system: PFC pyramidal neurons of NVHL rats; assay: In vivo intracellular recordings: PFC pyramidal cell firing after VTA stimulation in NVHL rats; design: species or system Sprague-Dawley rats; settings: anesthetized adult NVHL rats, juvenile treatment
Procedure: The abnormal dopamine modulation of PFC function in NVHL rats is also observed in vivo. In vivo intracellular recordings were performed in 38 pyramidal neurons from adult rats (n=9 SHAM (placebo), n=5 NVHL, and n=7 NAC-treated NVHL). […] Up states occurred at a frequency of 0.6±0.1 Hz with a duration of 523.6±24.7 ms. The majority of cells (n=21) fired spontaneously at a rate of 2.1±0.7 Hz.
Antioxidant pretreatment regimen: NAC (BioAdvantexPharma, Mississauga, Ontario, Canada) was administered in the drinking water at 900 mg/l. NAC treatment started at P5 or at P35, and previous work in mice has shown that NAC consumed by the dam is transmitted to the pups through her milk (das Neves Duarte et al., 2012). NAC treatment ended at P50. Fresh solutions were prepared every 2-3 days. Ebselen (Sound Pharmaceuticals Inc., Seattle, WA) was administered i.p. 5 days a week starting at P35 until the day of PPI testing (P60). Stock ebselen solution (20 mg/ml DMSO, frozen aliquots) was diluted 1:5 in sterile water and administered at a dose of 10 mg/kg. Control animals received an equivalent concentration of DMSO diluted 1:5 in water. […]
Microelectrodes were advanced through the medial PFC until a neuron was impaled. […] Firing was measured in the 500 ms epoch following the last VTA pulse in all sweeps, and compared among experimental groups. […]

CC(=O)N[C@@H](CS)C(=O)O [NAC, N-acetyl cysteine]
effect on PVI count reduction in PFC [1]: prevented; also recorded: rescued
effect on abnormal increase in pyramidal cell firing after VTA burst stimulation [2]: prevented; also recorded: sparse
